Results as given in US6407204B1 (priority 1997, dated 2002).

Legend:
Male Sprague-Dawley rats [1] = conditions: rat, in vivo
Male Sprague-Dawley rats [2] = conditions: rat, in vivo; remark: listed apart in the source

Substance | ED50 in phase II (Male Sprague-Dawley rats [1]) | analgesic doses in the formalin test (Male Sprague-Dawley rats [1]) | effect on phase I flinches (Male Sprague-Dawley rats [1]) | effect on phase II flinches (Male Sprague-Dawley rats [1]) | potency in phase II (tonic pain) versus phase I (acute pain) (Male Sprague-Dawley rats [1]) | overt signs of toxicity (Male Sprague-Dawley rats [2]) | dose required to induce analgesic effects in both acute and tonic pain portions (Male Sprague-Dawley rats [1]) | effect of the single agent alone (Male Sprague-Dawley rats [1]) | rats showing signs of incoordination (Male Sprague-Dawley rats [2])
Gly-Glu-Gla-Gla-Leu-Gln-Gla-Asn-Gln-Gla-Leu-Ile-Arg-Gla-Lys-Ser-Asn-NH2 [Conantokin G] | 0.15 µg | 0.05 to 1 µg | without significantly decreasing | nearly abolished | very potent | no overt signs of toxicity |  |  | 
Gly-Glu-Gla-Gla-Val-Ala-Lys-Met-Ala-Ala-Glu-Leu-Ala-Arg-Glu-Asn-Ile-Ala-Lys-Gly-Cys-Lys-Val-Asn-Cys-Tyr-Pro [Conantokin R] |  |  |  |  |  |  | more than 3.3 μg | no effect | One of six rats
